Experimental data published in ChEMBL document CHEMBL1201862, “PubChem BioAssay data set” (2004).
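Protocol summary: plate cells (96-well), add compound at 5 concentrations, incubate 48 h, interpolate endpoints linearly. Abbreviation: GI50, concentration required for 50% inhibition of growth.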 The source made the active and inactive calls. Rule as the data show it: active = GI50 up to about 1.1 µM and inactive = higher.

How the values were obtained:
Assay in all cases: growth of human tumour cells (NCI), 48 h
K562 = system: K562
LOX IMVI = system: LOX IMVI
Hs-578T = system: Hs-578T
NCI-H460 = system: NCI-H460
COLO 205 = system: COLO 205
SF-539 = system: SF-539
MCF7 = system: MCF7
NCI-H226 = system: NCI-H226
786-0 = system: 786-0
M14 = system: M14
HT-29 = system: HT-29
SN12C = system: SN12C
SF-268 = system: SF-268
EKVX = system: EKVX
PC-3 = system: PC-3
SNB-75 = system: SNB-75
SR = system: SR
A549 = system: A549
U-251 = system: U-251
HOP-92 = system: HOP-92
MOLT-4 = system: MOLT-4
OVCAR-8 = system: OVCAR-8
CAKI-1 = system: CAKI-1
UACC-257 = system: UACC-257
HCT-15 = system: HCT-15
DU-145 = system: DU-145
UACC-62 = system: UACC-62
A498 = system: A498
NCI/ADR-RES = system: NCI/ADR-RES
SF-295 = system: SF-295
UO-31 = system: UO-31
HL-60 = system: HL-60
HCT-116 = system: HCT-116
Malme-3M = system: Malme-3M
RPMI-8226 = system: RPMI-8226
MDA-N = system: MDA-N
SNB-19 = system: SNB-19
HOP-62 = system: HOP-62
NCI-H522 = system: NCI-H522
CCRF-CEM = system: CCRF-CEM
T47D = system: T47D
KM12 = system: KM12
NCI-H23 = system: NCI-H23
SK-OV-3 = system: SK-OV-3
RXF 393 = system: RXF 393
TK-10 = system: TK-10
OVCAR-4 = system: OVCAR-4
MDA-MB-231 = system: MDA-MB-231
SW-620 = system: SW-620
SK-MEL-28 = system: SK-MEL-28
OVCAR-3 = system: OVCAR-3
SK-MEL-5 = system: SK-MEL-5
ACHN = system: ACHN
MDA-MB-435 = system: MDA-MB-435
HCC 2998 = system: HCC 2998
OVCAR-5 = system: OVCAR-5
BT-549 = system: BT-549
SK-MEL-2 = system: SK-MEL-2
IGROV-1 = system: IGROV-1

For O=[N+]([O-])c1cccc2nc3ccccc3c(NCCc3cccc[n+]3[O-])c12, the GI50 (K562) was 0.0168 µM (active), the GI50 (LOX IMVI) was 0.0299 µM (active) and the GI50 (Hs-578T) was 0.0782 µM (active). The GI50 (NCI-H460) was < 0.0141 µM (active), the GI50 (COLO 205) was < 0.01 µM (active) and the GI50 (SF-539) was 0.0407 µM (active). The GI50 (MCF7) was < 0.0116 µM (active), the GI50 (NCI-H226) was 0.0738 µM (active) and the GI50 (786-0) was < 0.0168 µM (active). For the same compound, the GI50 (M14) was < 0.0105 µM (active), the GI50 (HT-29) was 0.0103 µM (active) and the GI50 (SN12C) was < 0.0199 µM (active). For the same compound, the GI50 (SF-268) was < 0.0476 µM (active), the GI50 (EKVX) was < 0.0212 µM (active) and the GI50 (PC-3) was < 0.0391 µM (active). For the same compound, the GI50 (SNB-75) was < 0.0438 µM (active), the GI50 (SR) was < 0.01 µM (active) and the GI50 (A549) was < 0.0159 µM (active). The GI50 (U-251) was < 0.038 µM (active), the GI50 (HOP-92) was < 0.0183 µM (active) and the GI50 (MOLT-4) was < 0.0144 µM (active). The GI50 (OVCAR-8) was < 0.0176 µM (active), the GI50 (CAKI-1) was < 0.0402 µM (active) and the GI50 (UACC-257) was < 0.0231 µM (active). The GI50 (HCT-15) was less than 0.0138 µM, the GI50 (DU-145) was < 0.01 µM (active) and the GI50 (UACC-62) was 0.052 µM (active). For the same compound, the GI50 (A498) was 0.0475 µM (active), the GI50 (NCI/ADR-RES) was 0.608 µM (active) and the GI50 (SF-295) was < 0.0368 µM (active). The GI50 (UO-31) was < 0.0193 µM (active), the GI50 (HL-60) was < 0.0427 µM (active) and the GI50 (HCT-116) was < 0.01 µM (active). For the same compound, the GI50 (Malme-3M) was < 0.0144 µM (active), the GI50 (RPMI-8226) was 0.0123 µM (active) and the GI50 (MDA-N) was 0.0153 µM (active). For the same compound, the GI50 (SNB-19) was 0.128 µM (active), the GI50 (HOP-62) was < 0.0177 µM (active) and the GI50 (NCI-H522) was 0.0187 µM (active). For the same compound, the GI50 (CCRF-CEM) was < 0.0318 µM (active), the GI50 (T47D) was < 0.0378 µM (active) and the GI50 (KM12) was < 0.0328 µM (active). The GI50 (NCI-H23) was < 0.0115 µM (active), the GI50 (SK-OV-3) was 0.153 µM (active) and the GI50 (RXF 393) was 0.0196 µM (active). The GI50 (TK-10) was < 0.0486 µM (active), the GI50 (OVCAR-4) was 0.0541 µM (active) and the GI50 (MDA-MB-231) was < 0.01 µM (active). The GI50 (SW-620) was < 0.01 µM (active), the GI50 (SK-MEL-28) was < 0.01 µM (active) and the GI50 (OVCAR-3) was < 0.0385 µM (active). The GI50 (SK-MEL-5) was < 0.01 µM (active), the GI50 (ACHN) was 0.0103 µM (active) and the GI50 (MDA-MB-435) was < 0.0116 µM (active). For the same compound, the GI50 (HCC 2998) was < 0.01 µM (active), the GI50 (OVCAR-5) was < 0.0194 µM (active) and the GI50 (BT-549) was < 0.0165 µM (active). The GI50 (SK-MEL-2) was 0.0619 µM (active).

For CCOC(=O)NC(Nc1ccc([N+](=O)[O-])cc1)(C(F)(F)F)C(F)(F)F, the GI50 (K562) was 53.8 µM (inactive), the GI50 (LOX IMVI) was 75.3 µM (inactive) and the GI50 (Hs-578T) was 33.9 µM (inactive). For the same compound, the GI50 (NCI-H460) was 40.9 µM (inactive), the GI50 (COLO 205) was > 100 µM (inactive) and the GI50 (SF-539) was > 100 µM (inactive). The GI50 (MCF7) was 60.7 µM (inactive), the GI50 (NCI-H226) was 40.1 µM (inactive) and the GI50 (786-0) was > 100 µM (inactive). For the same compound, the GI50 (M14) was 60.4 µM (inactive), the GI50 (HT-29) was > 100 µM (inactive) and the GI50 (SN12C) was > 100 µM (inactive). For the same compound, the GI50 (SF-268) was > 100 µM (inactive), the GI50 (EKVX) was 75.5 µM (inactive) and the GI50 (PC-3) was 53.1 µM (inactive). For the same compound, the GI50 (SNB-75) was > 100 µM (inactive), the GI50 (SR) was 34.2 µM (inactive) and the GI50 (IGROV-1) was 70.5 µM (inactive). The GI50 (A549) was 45 µM (inactive), the GI50 (U-251) was 85.9 µM (inactive) and the GI50 (HOP-92) was 31.1 µM (inactive). The GI50 (MOLT-4) was 54.2 µM (inactive), the GI50 (OVCAR-8) was > 100 µM (inactive) and the GI50 (CAKI-1) was 82.4 µM (inactive). For the same compound, the GI50 (UACC-257) was 70.3 µM (inactive), the GI50 (HCT-15) was 70.6 µM and the GI50 (DU-145) was > 100 µM (inactive). The GI50 (UACC-62) was 95.1 µM (inactive), the GI50 (A498) was 91.2 µM (inactive) and the GI50 (NCI/ADR-RES) was 30.8 µM (inactive). For the same compound, the GI50 (SF-295) was > 100 µM (inactive), the GI50 (UO-31) was 27 µM (inactive) and the GI50 (HL-60) was 54.1 µM (inactive). The GI50 (HCT-116) was 59.8 µM (inactive), the GI50 (Malme-3M) was > 100 µM (inactive) and the GI50 (RPMI-8226) was 99.3 µM (inactive). The GI50 (MDA-N) was 22 µM (inactive), the GI50 (SNB-19) was > 100 µM (inactive) and the GI50 (HOP-62) was > 100 µM (inactive). The GI50 (NCI-H522) was 25.1 µM (inactive), the GI50 (CCRF-CEM) was > 100 µM (inactive) and the GI50 (T47D) was 58.3 µM (inactive). The GI50 (KM12) was 82.2 µM (inactive), the GI50 (NCI-H23) was > 100 µM (inactive) and the GI50 (SK-OV-3) was 56.5 µM (inactive). The GI50 (RXF 393) was 12 µM (inactive), the GI50 (TK-10) was 69.8 µM (inactive) and the GI50 (MDA-MB-231) was 94.2 µM (inactive). The GI50 (SW-620) was > 100 µM (inactive), the GI50 (SK-MEL-28) was > 100 µM (inactive) and the GI50 (OVCAR-3) was 65.8 µM (inactive). The GI50 (SK-MEL-5) was 81.3 µM (inactive), the GI50 (ACHN) was > 100 µM (inactive) and the GI50 (MDA-MB-435) was 21.3 µM (inactive). The GI50 (HCC 2998) was > 100 µM (inactive), the GI50 (OVCAR-5) was > 100 µM (inactive) and the GI50 (BT-549) was 96.2 µM (inactive). For the same compound, the GI50 (SK-MEL-2) was > 100 µM (inactive).
